These results are taken from PubChem BioAssay (NCI).

What is called GI50 is the concentration that inhibits growth by half. As usually defined, the TGI is the concentration at which net growth stops.

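Grown in 96-well plates, cells were treated for 48 hours with each compound at five concentrations. Insufficient inhibition: endpoint recorded as highest concentration tested. GI50 marks 50% less growth. TGI denotes the concentration required for complete inhibition of growth.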 Bounds are passed on as bounds.

Holding throughout (assay): DTP human tumour cell line panel, 48 h
The test system of experiment [1] is COLO 205 colon.
Experiment [2] relates to SF-268 CNS.
Experiment [3] has as its system CAKI-1 renal.
Experiment [4] has as its system UACC-62 melanoma.
The test system of experiment [5] is MDA-MB-231 breast.
The test system of experiment [6] is TK-10 renal.
Experiment [7] relates to SF-539 CNS.
The test system of experiment [8] is MALME-3M melanoma.
Experiment [9] concerns IGROV1 ovarian.
Experiment [10] has as its system MDA-MB-435.

Regarding `O=C1c2ccccc2C(=O)c2c1ccc1c(=O)n(-c3ccccc3C(F)(F)F)nnc21`, the GI50 in experiment [1] was 1.83 µM; in experiment [2] it was 2.74 µM; in experiment [3] it was 2.77 µM; in experiment [4] it was 1.52 µM; in [5] it was 2.07 µM; in [6] it was 3.89 µM. For the same molecule, the GI50 in [7] is 2.57 µM; in [8], 1.27 µM; in experiment [9], 1.33 µM; in experiment [10], 1.66 µM. The TGI in experiment [1] is 4.28 µM; in experiment [2] it was over 100 µM; in [3] it was over 100 µM; in experiment [4] it was 3.21 µM; in [5], 7.04 µM; in experiment [6], over 100 µM. For the same molecule, the concentration for total growth inhibition (TGI) in experiment [7] came to 8.49 µM; in experiment [8], 2.54 µM; in experiment [9], 3.31 µM; in experiment [10], 3.1 µM.

For `COc1c(O)cc2c(c1O)C(=O)C1=C(CCCC1)C2=O`, the TGI in experiment [1] is 40.1 µM; in experiment [2] it was over 100 µM; in experiment [3], 71 µM; in experiment [4], 48.8 µM; in [5] it was 64.1 µM; in [6], 74.7 µM. Also, the TGI is 44 µM in [7], 69.3 µM in experiment [8], 43.8 µM in experiment [9] and over 100 µM in experiment [10].

Take `CCOC(=O)c1c(NC(=O)c2ccccc2)sc2c3c(ccc12)OCN(C)C3`: the GI50 in [1] is 1.77 µM; in experiment [2] it was 1.77 µM; in experiment [3] it was 1.59 µM; in [4] it was 1.7 µM; in [5] it was 1.85 µM; in experiment [6] it was 1.81 µM. The GI50 in experiment [7] was 1.63 µM; in experiment [8], 1.78 µM; in experiment [9] it was 1.64 µM; in experiment [10] it was 1.64 µM. The TGI in experiment [1] stood at 3.7 µM; in experiment [2] it was 3.59 µM; in [3], 2.99 µM; in [4], 3.27 µM; in [5], 3.52 µM; in experiment [6], 3.54 µM. Moreover, the TGI in [7] was found to be 3.05 µM; in experiment [8] it was 3.43 µM; in experiment [9], 3.18 µM; in experiment [10], 3.02 µM.

On to `CN(C)C=NC1CCC(C(C)(C)C)CC1` (stereo not given), for which the TGI in experiment [1] came to 33.2 µM; in experiment [2], 96 µM; in experiment [3], 33.1 µM; in experiment [4], 33.8 µM; in experiment [5] it was 26.7 µM; in experiment [6], 38.6 µM. The total growth inhibition concentration (TGI) stood at 31.8 µM in [7], 34.9 µM in experiment [8], 37.9 µM in experiment [9] and 33.3 µM in [10].

Consider `Cc1ccc(-c2nc3cc(Cl)c(Cl)cc3nc2C#N)cc1`, for which the GI50 in experiment [1] was over 100 µM; in [2] it was over 100 µM; in [3], over 100 µM; in [4], over 100 µM; in [5], over 100 µM; in experiment [6] it was 49.2 µM. Besides, the GI50 was over 100 µM in experiment [7], 92.7 µM in [8], over 100 µM in experiment [9] and over 100 µM in [10]. The TGI in experiment [1], in [2], in experiment [3], in [4], in experiment [5] and in experiment [6] was over 100 µM in each case. In addition, the TGI in experiment [7], in experiment [8], in experiment [9] and in experiment [10] was over 100 µM in each case.

As for `COc1cc(/C=C/C(=O)/C=C/c2cc3ccc(Cl)cc3n(Cc3ccccc3)c2=O)ccc1O`, the GI50 in [1] was 1.97 µM; in experiment [2], 2.16 µM; in experiment [3] it was 2.08 µM; in [4], 1.29 µM; in experiment [5] it was 2.93 µM; in [6] it was 2.44 µM. For the same molecule, the GI50 in experiment [7] is 1.62 µM; in experiment [8], 1.94 µM; in experiment [9] it was 1.74 µM; in [10], 0.862 µM. Besides, the TGI in experiment [1] came out at 6.25 µM; in experiment [2], 7.47 µM; in [3], 4.54 µM; in experiment [4], 3.71 µM; in experiment [5], 16.6 µM; in experiment [6] it was 5.5 µM. Also, the TGI turned out to be 3.53 µM in [7], 4.64 µM in experiment [8], 4.53 µM in [9] and 4.32 µM in experiment [10].

Consider `Cc1nc(-c2cnc(NC(C)C)n(C)c2=O)ccc1Oc1ccnc(-c2cnn(C)c2)c1`, for which the GI50 was 10.6 µM in experiment [1]; 23 µM in [2]; 7.51 µM in experiment [3]; 4.84 µM in experiment [4]; 20.5 µM in experiment [5]; 16 µM in [6]. Besides, the GI50 in experiment [7] was 7.5 µM; in [8], 12.6 µM; in [9] it was 15 µM; in experiment [10] it was 2.98 µM. The TGI was 80.7 µM in experiment [1]; over 100 µM in experiment [2]; 65.2 µM in experiment [3]; 45.7 µM in [4]; over 100 µM in experiment [5]; 75.4 µM in [6]. In addition, the TGI was 46.8 µM in experiment [7], 68.8 µM in experiment [8], over 100 µM in experiment [9] and 18.2 µM in experiment [10].

Regarding `COc1ccccc1/C=C/C1=C(C)CCC(c2ccccc2OC)C1C` (stereo not given), the GI50 in experiment [1] is 0.21 µM; in experiment [2], 0.201 µM; in [3], 0.157 µM; in [4] it was 0.0684 µM; in experiment [5] it was 0.157 µM; in [6], 0.227 µM. The GI50 in experiment [7] was 0.0833 µM; in [8], 11.9 µM; in experiment [9], 0.132 µM; in experiment [10] it was 0.0595 µM. The TGI in experiment [1] was 0.498 µM; in experiment [2] it was over 73 µM; in [3] it was 7.69 µM; in experiment [4], 40.3 µM; in experiment [5], 6.41 µM; in [6] it was 45.1 µM. In addition, the TGI in experiment [7] is 0.215 µM; in [8], over 100 µM; in experiment [9], over 63.5 µM; in experiment [10], 0.154 µM.

`CCN(CC)c1ccc(C2NC(=O)c3ccccc3N2)cc1` (stereo not given): the TGI is 4.51 µM in experiment [1]; over 100 µM in [2]; over 26.5 µM in experiment [3]; over 100 µM in experiment [4]; 7.76 µM in experiment [5]; over 100 µM in experiment [6]. The TGI is 8.68 µM in experiment [7], over 100 µM in experiment [8], over 100 µM in experiment [9] and 3.44 µM in experiment [10].
